The values that follow come from article PMC7190706, “A Self-Assembling Lipidic Peptide and Selective Partial V2 Receptor Agonist Inhibits Urine Production” (Scientific Reports, 2020).

Bounds are passed on as bounds.

The target of one data set is T1, V2 receptor (Canis lupus familiaris, UniProt O77808).
T1 construct: MDCK cells expressing the V2 receptor were cultured; endogenous in cells; host or cells: MDCK cells
The experiment in a line: V2 receptor agonism, cAMP accumulation in MDCK cells (cAMP EIA). Format: cell-based, dog. (Changes in cAMP serve as a functional read-out for many G protein-coupled receptors.)

Another data set deals with MDCK cell line. Particulars: read-out: EC50 functional activity (fluid secretion); cited from earlier work.
The target in a further data set is T2, OT receptor (Rattus norvegicus, UniProt P70536).
T2 construct: OT receptors from rat uterine strips for our receptor activity assays; from tissue; host or cells: uterine strips of female Wistar rats
T2 sequence (P70536 1-388): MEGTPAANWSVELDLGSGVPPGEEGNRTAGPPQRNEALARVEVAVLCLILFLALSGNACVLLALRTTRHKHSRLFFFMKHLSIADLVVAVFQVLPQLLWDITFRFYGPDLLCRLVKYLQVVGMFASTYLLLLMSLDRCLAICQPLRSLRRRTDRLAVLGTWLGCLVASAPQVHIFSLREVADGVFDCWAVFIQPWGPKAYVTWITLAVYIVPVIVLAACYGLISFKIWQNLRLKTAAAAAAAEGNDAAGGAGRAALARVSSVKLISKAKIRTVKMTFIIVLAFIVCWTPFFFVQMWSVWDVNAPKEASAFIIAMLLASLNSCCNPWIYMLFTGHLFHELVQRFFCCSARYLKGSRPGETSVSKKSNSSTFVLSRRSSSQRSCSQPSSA
Nature of the data set: OT induced contractions of isolated uterine strips (organ bath). The following applies: for 1/Rmax of double reciprocal plot (1/R vs 1/[OT]): Rmax = maximum contractile response in cm. The text has this: The uterus was excised and dissected into longitudinal strips (0.5 ×1.3–1.4 cm) from the anti-mesometrial side of the mid-portion of horns which contained implantation sites.
Only one strip from each animal was used. The uterine strip was tied at the bottom end to a fixed metal hook and at the top end to a force displacement transducer (Harvard Instruments, Kent, UK) using a cotton thread. The force displacement transducer was coupled to an amplifier driving a direct writing oscillograph (Universal Oscillograph, Harvard, Kent, UK). A cumulative dose procedure was used and isotonic contractions recorded.
DMF was added as DMF had been used to solubilise METx. […] The mean peak amplitude (MPA) was calculated from Eq. 1.1 MPA=ΣPH/n where PH = peak heights obtained within the 10 minute period immediately after addition of METx, OT or dimethylformamide and n = number of peaks within the same 10 minute period. The frequency of isotonic contractions was also evaluated during the 10 minute period immediately after the addition of METx, OT or dimethylformamide.
The organ bath was not washed out until a maximal response was reached. The MPA was calculated as shown in Equation 1, except that the recordings were done after the addition of each dose of OT and the MPA was calculated over a 5 minute period. To quantify the effect of METx on OT induced contractions, METx (final bath concentration = 0.1, 0.3 or 0.6 µM) was added to the organ bath prior to the addition of OT (Table 2 – Supplementary Information). […] Results were plotted as a percentage of the maximum contraction obtained with KCl against concentration. A double reciprocal plot was used to assess the nature of the receptor antagonism observed.
(1 picture or pasted object on this page, not shown here)

The subject of data set [1] is spontaneous uterine contractions. The experiment in a line: Spontaneous contractions of isolated uterine strips (organ bath). Details: species or system rat. The following applies: METx 41 nM. How it is done: Female Wistar rats (203–225 g) were killed with CO2 on the day of the experiments. The uterus was excised and dissected into longitudinal strips (0.5 ×1.3–1.4 cm) from the anti-mesometrial side of the mid-portion of horns which contained implantation sites.
The uterine strips were suspended in an organ bath that contained physiological salt solution (PSS, 25 ml: 116 mM NaCl, 4.6 mM KCl, 1.16 mM NaH2PO4.H2O, 1.16 mM MgSO4.7H2O, 21.9 mM NaHCO3, 1.8 mM CaCl2.2H2O, 11.6 mM dextrose, 0.03 mM CaNa2EDTA, pH = […]). The water-jacketed bath was maintained at 36 °C and aerated with a mixture of 95% O2 and 5% CO2. Only one strip from each animal was used. The uterine strip was tied at the bottom end to a fixed metal hook and at the top end to a force displacement transducer (Harvard Instruments, Kent, UK) using a cotton thread. The force displacement transducer was coupled to an amplifier driving a direct writing oscillograph (Universal Oscillograph, Harvard, Kent, UK). A cumulative dose procedure was used and isotonic contractions recorded.
To quantify the effect of METx on spontaneous uterine contractions the myometrial strips from the same uterus as above, but from the opposite horn, were equilibrated for 60 min within the organ bath and then a single dose of DMF applied followed by doses of METx as shown in Table 1 in the Supplementary Information. […]

Data set [2] can be described thus: Plasma stability in 30% rat plasma, HPLC. Format: in vitro ADME. Particulars: 37 °C.
Method: The plasma stability of METx was evaluated prior to an in vivo study. Blood was collected from male Sprague Dawley rats (n = 3, 200–250 g) into a vacutainer coated with ethylene diamine tetra-acetic acid (EDTA) and kept on ice (4 °C) until the plasma could be separated by centrifugation (10 min at 2000g and 4 °C, Hermle z323k centrifuge, HERMLE Labortechnik, Germany). The separated rat plasma was stored at −20 °C until required. On the day of the experiment, the plasma was thawed just prior to the experiment and diluted to 30% v/v using NaCl (0.9%). METx (7.2 × 10^−4M, 50 μL) was added to the diluted plasma (30% v/v, 450μL) that had been allowed to warm for 30 minutes at 37 °C either as a solution in dimethylsulfoxide or as a GCPQ nanoparticle formulation dispersed in water. The formulations and free drug were incubated at 37 °C with shaking for a maximum of 4 hours. At regular time intervals aliquots (50μL) were removed and mixed with dimethylformamide (150μL) to dissolve the METx and precipitate the plasma proteins. Samples were then immediately vortexed and centrifuged for 10 minutes at 13,000 rpm (MSE micro centaur centrifuge, MSE, UK). The supernatant (100μL) was collected and 40 μL was analysed using a reverse phase high performance liquid chromatography (HPLC) method. HPLC analyses was performed using an Agilent 1200 HPLC system (Agilent Technologies, UK) equipped with a quaternary pump, degasser, autosampler and a UV detector. Samples were chromatographed over a reverse phase column: Phenomenex Onyx Monolithic C18 column (5μm, 4.6 ×100 mm, Phenomenex, UK) connected in series with a guard column (5μm, 4.6 ×10 mm). The column temperature was kept constant at 35 °C. Separation was performed using an acetonitrile, water mobile phase gradient method (Table 3 – Supplementary Information) at a flow rate of 1.5 mL per minute, with detection at a wavelength of 280 nm.
The nature of data set [3]: Spontaneously voided urine volume and osmolality after intravenous injection in healthy rats. It is filed as in vivo. The following applies: METx (5: 1) nanoparticle formulation, rat. The protocol: Male Sprague Dawley rats (220–250 g) were housed five per cage in an air conditioned unit maintained at 20–22 °C and 50–60% humidity, with lighting controlled on a twelve-hour cycle. The lights were switched on at 07:00 and off at 19:00. Animals were allowed free access to standard rodent chow and water. Before experimentation, animals were habituated for 7 days within the unit. Prior to testing animals were acclimatised to the procedure room for 1 hour. Animals were also acclimatised to the metabolic cages for 20 minutes per day for 5 days before the day of experiment. Animals were randomly assigned into one of four groups; untreated, and animals receiving an intravenous injection of 10, 20 or 40 mg kg^−1 of METx as a GCPQ, METx (5: 1) nanoparticle formulation (n = 3) in a dose volume of 0.9 mL. The formulations were freshly prepared on the morning of the experiment as described above and the pH of the formulation adjusted to pH = 7 using sodium hydroxide (1 M). After receiving their METx formulations, animals were placed within individual metabolic cages (Techniplast, Italy) with access to water. Spontaneously voided urine was collected for 4 hours. Urine osmolality was determined by freezing point depression using a Type 5r osmometer (Loser, Germany).

The target in a further data set is T3, V1a receptor (Rattus norvegicus, UniProt P30560).
T3 construct: V1a receptors from A7r5 cells; endogenous in cells; host or cells: A7r5 rat smooth muscle cells
Nature of the data set: V1a receptor agonism, IP-1 ELISA in A7r5 cells. It is filed as cell-based. The text has this: microplate reader. […] The
hours. […] The cells were
manufacturer’s instructions.
(In an ELISA, binding on a coated surface is turned into a signal by an enzyme label.)

The subject of a further data set is human V1a receptor. Details: method as in PMID 22375852. The following applies: cited from earlier work.

T1 sequence (O77808 whole entry): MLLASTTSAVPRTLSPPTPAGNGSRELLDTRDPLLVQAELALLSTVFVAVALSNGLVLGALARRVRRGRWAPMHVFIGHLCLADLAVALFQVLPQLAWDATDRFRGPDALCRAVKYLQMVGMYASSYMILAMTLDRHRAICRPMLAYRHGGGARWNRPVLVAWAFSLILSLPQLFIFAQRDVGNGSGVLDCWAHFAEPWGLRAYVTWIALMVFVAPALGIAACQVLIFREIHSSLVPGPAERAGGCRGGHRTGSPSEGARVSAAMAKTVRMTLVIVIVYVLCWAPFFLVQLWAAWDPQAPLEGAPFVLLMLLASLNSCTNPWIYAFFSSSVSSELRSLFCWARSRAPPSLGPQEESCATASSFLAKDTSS
T3 sequence (P30560 whole entry): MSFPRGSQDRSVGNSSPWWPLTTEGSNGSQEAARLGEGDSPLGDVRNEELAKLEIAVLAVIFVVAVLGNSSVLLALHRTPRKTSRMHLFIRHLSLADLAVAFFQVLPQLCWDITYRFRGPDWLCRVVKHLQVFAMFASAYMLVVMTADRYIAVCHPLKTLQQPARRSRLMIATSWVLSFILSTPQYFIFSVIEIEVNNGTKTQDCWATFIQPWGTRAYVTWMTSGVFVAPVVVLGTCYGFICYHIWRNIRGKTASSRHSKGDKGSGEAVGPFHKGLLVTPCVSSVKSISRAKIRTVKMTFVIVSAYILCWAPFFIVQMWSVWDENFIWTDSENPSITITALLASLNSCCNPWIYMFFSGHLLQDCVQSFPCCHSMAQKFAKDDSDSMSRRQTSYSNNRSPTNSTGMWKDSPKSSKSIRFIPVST
Method for V2 receptor: We thus used the V2 receptor from MDCK cells, V1a receptors from A7r5 cells and OT receptors from rat uterine strips for our receptor activity assays.
MDCK cells expressing the V2 receptor were cultured in Eagle’s Essential Minimum Medium (EMEM) supplemented with foetal bovine serum (FBS, 10% v/v), L-Glutamine (1% v/v) and non-essential amino acids (NEAA 1% v/v). […] The cell culture medium was changed every 2 days. Cells were sub-cultured every 7 days or upon reaching confluence using trypsin/ ethylene diamine tetraacetic acid (EDTA) (0.25%w/v trypsin/ 0.01%w/v EDTA in phosphate buffered saline, 3 mL) solution to dissociate the cells and the cells reseeded at one third of their original density.
The cell culture media was changed daily. On the day of the experiment, the cells were washed with Dulbecco’s phosphate-buffered saline (DPBS) without calcium and magnesium and incubated for 1 hour in cell culture medium with isobutyl methylxanthine (IBMX, 0.5 mM). IBMX is a phosphodiesterase inhibitor that prevents the breakdown of cAMP within the cells; allowing for total quantification of the analyte cAMP. […]
for total quantification of the analyte cAMP. […]
was quantified from the cell lysate (0.1 mL) using a competition based EIA as per the […]
acid (0.1 M, 0.1 mL) and the plates read at 450 nm using an ELx808 microplate reader […]
concentration of cAMP per well was determined from equation 1. […]

Usually EC50 stands for the midpoint of the concentration-response curve. `N=C(N)NCCC[C@H](NC(=O)[C@@H]1CCCN1C(=O)[C@@H]1CSSC[C@H](N)C(=O)N[C@@H](Cc2ccc(O)cc2)C(=O)N[C@@H](Cc2ccccc2)C(=O)N[C@@H](CCC(N)=O)C(=O)N[C@@H](CC(N)=O)C(=O)N1)C(=O)NCC(N)=O` [AVP, arginine vasopressin, reference compound]: the “concentration at which the maximal cAMP response was seen” value on V2 receptor worked out at 100 nM. Also, in the data set with MDCK cell line, the half-maximal effective concentration (EC50) is 0.36 nM.
Turning to `CCCCCCCCCCCCCCCC(=O)NCCCC[C@H](NC(=O)CNC(=O)[C@H](CC(C)C)NC(=O)[C@@H]1CCCN1C(=O)[C@@H]1CSSC[C@H](N)C(=O)N[C@@H](Cc2ccc(O)cc2)C(=O)N[C@@H]([C@@H](C)CC)C(=O)N[C@@H](CCC(N)=O)C(=O)N[C@@H](CC(N)=O)C(=O)N1)C(=O)O` [METx], at V2 receptor, the “concentration at which the maximal cAMP response was seen” value was 10 nM. Further, at OT receptor (300 nM versus V2 EC50), the “OT antagonist concentration relative to EC50 at the V2 receptor” value was 100 fold. The “effect on OT induced contractions” value at OT receptor (100 nm of inhibitor) was “not effective in reducing OT induced contractions”. At OT receptor (METx 300 nM and 600 nM, amplitude of OT induced contractions, p < 0.05), the “shift of the OT dose response curve to the right” value is given as “two orders of magnitude”. On OT receptor (from double reciprocal plots), the “nature of antagonism at the OT receptor” value is listed as “non-competitive antagonist”. Besides, the figures for the “1/Rmax of double reciprocal plot (1/R vs 1/[OT])” value at OT receptor (inhibitor 100 nM), at OT receptor (inhibitor 300 nM) and on OT receptor (inhibitor 600 nM) were 0.48, 0.97 and 1.33, respectively. The “concentration at which antagonism at the OT receptor starts” value at OT receptor (uterine strips) is reported as 300 nM. For the same molecule, in data set [1], the “effect on spontaneous uterine contractions” value is given as “no effect”. For the same molecule, the order of stability result in data set [2] (30% rat plasma) is given as “METx, Polymer (1: 5)> METx, Polymer (1: 7)> METx> METx, Polymer (1: 4)”. In addition, the “degradation over the 4 hour incubation” value in data set [2] (30% rat plasma, 4 hour) was “completely degraded”. Also, in data set [2] (30% v/v rat plasma), the “time to complete degradation” value was at most 60 min. The “osmolality of the urine” value in data set [3] (20 mg kg^−1 intravenous as GCPQ) is recorded as “increased significantly”. Moreover, in data set [3] (40 mg kg^−1 intravenous as GCPQ, 4 hour observation period), the urine production result is “no urine at all”. Moreover, the “spontaneously voided urine volume, dose dependence” value in data set [3] (10, 20 or 40 mg kg^−1 intravenous as GCPQ, 4 hours) is reported as “dose correlated reduction in urine production”.
In turn, `CC[C@H](C)[C@@H]1NC(=O)[C@H](Cc2ccc(O)cc2)NC(=O)[C@@H](N)CSSC[C@@H](C(=O)N2CCC[C@H]2C(=O)N[C@@H](CC(C)C)C(=O)NCC(N)=O)NC(=O)[C@H](CC(N)=O)NC(=O)[C@H](CCC(N)=O)NC1=O` [OT, oxytocin, reference compound] came in with an EC50 at OT receptor of 0.081 nM.
As to desmopressin, the “agonism at the V1a receptor” value on V1a receptor is “not an agonist at the V1a receptor”. Further, the half-maximal effective concentration (EC50) in the data set on MDCK cell line is 0.7 nM. Besides, the “affinity for the human V1a receptor” value in the data set with human V1a receptor was “does not show any affinity”.
